The values below are quoted from earlier work in patent publication US6537523B1, “Diagnosis and treatment of cancer having clonal macrophage involvement” (The Regents of the University of California, priority 1994, dated 2003).

The test system of the data set is HIV antigens in human blood cells including macrophages.

As for Trichosanthin, the “expression of HIV antigens” value is given as “inhibit expression of HIV antigens”.
